According to ChEMBL document CHEMBL3885881, “DrugMatrix”:

Organism: Rattus norvegicus
Experiment: DrugMatrix - Regimen: Daily Repeat
Assay type: toxicity, organism-based, Sprague-Dawley
Design: regimen Daily Repeat, gender Male, age 6-8 weeks
Conditions: in vivo, po, route oral GAVAGE, […]; for ABSOLUTE BASOPHIL / ABSOLUTE EOSINOPHIL / ABSOLUTE LYMPHOCYTE / ABSOLUTE MONOCYTE / ABSOLUTE SEGMENTED NEUTROPHIL / BASOPHIL / EOSINOPHIL / ERYTHROCYTE COUNT / HEMATOCRIT / HEMOGLOBIN / LEUKOCYTE COUNT / LYMPHOCYTE / MEAN CORPUSCULAR HEMOGLOBIN / MEAN CORPUSCULAR HEMOGLOBIN CONCENTRATION / MEAN CORPUSCULAR VOLUME / MONOCYTE / NEUTROPHIL / NUCLEATED RED BLOOD CELLS / PLATELET COUNT: tissue Blood; for ALANINE AMINOTRANSFERASE / ALBUMIN / ALKALINE PHOSPHATASE / ASPARTATE AMINOTRANSFERASE / BLOOD UREA NITROGEN / CARBON DIOXIDE / CHLORIDE / CHOLESTEROL / CREATINE PHOSPHOKINASE / CREATININE / GLUCOSE / LACTATE DEHYDROGENASE / LIPASE / PHOSPHORUS / POTASSIUM / SODIUM / TOTAL BILIRUBIN / TOTAL PROTEIN / URIC ACID: tissue Plasma
[1] = 1 mg/kg, 120 h, dose level Low, time 5 day
[2] = 9 mg/kg, 72 h, dose level High, time 3 day
[3] = 9 mg/kg, 120 h, dose level High, time 5 day

O=C(O)COC(=O)Cc1ccccc1Nc1c(Cl)cccc1Cl [ACECLOFENAC]
ABSOLUTE BASOPHIL [1]: 0 CELLS/uL
ABSOLUTE EOSINOPHIL [1]: 38.33 CELLS/uL
ABSOLUTE LYMPHOCYTE [1]: 9464 CELLS/uL
ABSOLUTE MONOCYTE [1]: 76.67 CELLS/uL
ABSOLUTE SEGMENTED NEUTROPHIL [1]: 854.33 CELLS/uL
BASOPHIL [1]: 0%
EOSINOPHIL [1]: 0.33%
ERYTHROCYTE COUNT [1]: 5.79 x10E6/uL
HEMATOCRIT [1]: 35.33%
HEMOGLOBIN [1]: 13.3 G/DL
LEUKOCYTE COUNT [1]: 10.43 x10E3/uL
LYMPHOCYTE [1]: 90.67%
MEAN CORPUSCULAR HEMOGLOBIN [1]: 23 pg
MEAN CORPUSCULAR HEMOGLOBIN CONCENTRATION [1]: 37.7 G/DL
MEAN CORPUSCULAR VOLUME [1]: 61.07 fL
MONOCYTE [1]: 0.67%
NEUTROPHIL [1]: 8.33%
NUCLEATED RED BLOOD CELLS [1]: 0 /100WBC
PLATELET COUNT [1]: 1057.67 x10E3/uL
ALANINE AMINOTRANSFERASE [1]: 60.67 u/L
ALBUMIN [1]: 4.07 G/DL
ALKALINE PHOSPHATASE [1]: 388 u/L
ASPARTATE AMINOTRANSFERASE [1]: 80.67 u/L
BLOOD UREA NITROGEN [1]: 14.33 mg/dL
CARBON DIOXIDE [1]: 30.33 mmol/L
CHLORIDE [1]: 101.33 MEQ/L
CHOLESTEROL [1]: 53.33 mg/dL
CREATINE PHOSPHOKINASE [1]: 180.67 u/L
CREATININE [1]: 0.15 mg/dL
GLUCOSE [1]: 160.67 mg/dL
LACTATE DEHYDROGENASE [1]: 106 u/L
LIPASE [1]: 9 u/L
PHOSPHORUS [1]: 9.9 mg/dL
POTASSIUM [1]: 5.17 MEQ/L
SODIUM [1]: 143 MEQ/L
TOTAL BILIRUBIN [1]: 0.23 mg/dL
TOTAL PROTEIN [1]: 5.8 G/DL
URIC ACID [1]: 0.83 mg/dL
ABSOLUTE BASOPHIL [2]: 0 CELLS/uL
ABSOLUTE EOSINOPHIL [2]: 21.67 CELLS/uL
ABSOLUTE LYMPHOCYTE [2]: 7429.67 CELLS/uL
ABSOLUTE MONOCYTE [2]: 92.33 CELLS/uL
ABSOLUTE SEGMENTED NEUTROPHIL [2]: 1189.67 CELLS/uL
BASOPHIL [2]: 0%
EOSINOPHIL [2]: 0.33%
ERYTHROCYTE COUNT [2]: 5.12 x10E6/uL
HEMATOCRIT [2]: 32.1%
HEMOGLOBIN [2]: 12.63 G/DL
LEUKOCYTE COUNT [2]: 8.73 x10E3/uL
LYMPHOCYTE [2]: 84.67%
MEAN CORPUSCULAR HEMOGLOBIN [2]: 24.73 pg
MEAN CORPUSCULAR HEMOGLOBIN CONCENTRATION [2]: 39.37 G/DL
MEAN CORPUSCULAR VOLUME [2]: 62.73 fL
MONOCYTE [2]: 1.33%
NEUTROPHIL [2]: 13.67%
NUCLEATED RED BLOOD CELLS [2]: 0 /100WBC
PLATELET COUNT [2]: 823.33 x10E3/uL
ALANINE AMINOTRANSFERASE [2]: 57 u/L
ALBUMIN [2]: 3.37 G/DL
ALKALINE PHOSPHATASE [2]: 253 u/L
ASPARTATE AMINOTRANSFERASE [2]: 77.33 u/L
BLOOD UREA NITROGEN [2]: 10.67 mg/dL
CARBON DIOXIDE [2]: 34 mmol/L
CHLORIDE [2]: 99 MEQ/L
CHOLESTEROL [2]: 73.67 mg/dL
CREATINE PHOSPHOKINASE [2]: 625.67 u/L
CREATININE [2]: 0.12 mg/dL
GLUCOSE [2]: 160.67 mg/dL
LACTATE DEHYDROGENASE [2]: 163.33 u/L
LIPASE [2]: 8.67 u/L
PHOSPHORUS [2]: 11.57 mg/dL
POTASSIUM [2]: 6.06 MEQ/L
SODIUM [2]: 143.37 MEQ/L
TOTAL BILIRUBIN [2]: 0.13 mg/dL
TOTAL PROTEIN [2]: 5.3 G/DL
URIC ACID [2]: 1.03 mg/dL
ABSOLUTE BASOPHIL [3]: 0 CELLS/uL
ABSOLUTE EOSINOPHIL [3]: 0 CELLS/uL
ABSOLUTE LYMPHOCYTE [3]: 9903.33 CELLS/uL
ABSOLUTE MONOCYTE [3]: 435.33 CELLS/uL
ABSOLUTE SEGMENTED NEUTROPHIL [3]: 2861.33 CELLS/uL
BASOPHIL [3]: 0%
EOSINOPHIL [3]: 0%
ERYTHROCYTE COUNT [3]: 4.91 x10E6/uL
HEMATOCRIT [3]: 29.6%
HEMOGLOBIN [3]: 11.33 G/DL
LEUKOCYTE COUNT [3]: 13.2 x10E3/uL
LYMPHOCYTE [3]: 75.33%
MEAN CORPUSCULAR HEMOGLOBIN [3]: 23.1 pg
MEAN CORPUSCULAR HEMOGLOBIN CONCENTRATION [3]: 38.33 G/DL
MEAN CORPUSCULAR VOLUME [3]: 60.27 fL
MONOCYTE [3]: 3.33%
NEUTROPHIL [3]: 21.33%
NUCLEATED RED BLOOD CELLS [3]: 0.33 /100WBC
PLATELET COUNT [3]: 1272 x10E3/uL
ALANINE AMINOTRANSFERASE [3]: 58.33 u/L
ALBUMIN [3]: 3.03 G/DL
ALKALINE PHOSPHATASE [3]: 312 u/L
ASPARTATE AMINOTRANSFERASE [3]: 78.33 u/L
BLOOD UREA NITROGEN [3]: 12 mg/dL
CARBON DIOXIDE [3]: 28.33 mmol/L
CHLORIDE [3]: 101.67 MEQ/L
CHOLESTEROL [3]: 58.33 mg/dL
CREATINE PHOSPHOKINASE [3]: 296.67 u/L
CREATININE [3]: 0.2 mg/dL
GLUCOSE [3]: 165 mg/dL
LACTATE DEHYDROGENASE [3]: 151 u/L
LIPASE [3]: 10 u/L
PHOSPHORUS [3]: 10.13 mg/dL
POTASSIUM [3]: 5.79 MEQ/L
SODIUM [3]: 144.97 MEQ/L
TOTAL BILIRUBIN [3]: 0.13 mg/dL
TOTAL PROTEIN [3]: 5.03 G/DL
URIC ACID [3]: 1.1 mg/dL
